Data: US6121239A, “Peptide substrates for the identification of factor Xa” (Serbio, priority 1990, dated 2000)
Non-standard residues stand in square brackets, D forms with d. Residues, ends and D or L forms follow the SMILES beside them. *: point of attachment. pNA = O=[N+]([O-])c1ccc(N*)cc1; X1 = COC(=O)CC(=O)*; Ms = CS(=O)(=O)*

Target: Factor Xa (Homo sapiens, UniProt P00742)
Assay: Activity towards Factor Xa: hydrolysis rate by variation in optical density with time (ΔOD/min)
Assay type: biochemical
Settings: hydrolysis rate (ΔOD/min) at equimolar doses; activity of reference product CP 1 specified as 100%
Protocol: The activity of the peptides according to the invention towards Factor Xa was determined by one of the conventional methods, such as the one described in EP-A-0 280 160 (see page 14), the hydrolysis rate being assessed by the variation in optical density with time (ΔOD/min). The results obtained at equimolar doses have been collated in Table III below, where the activity of the reference product CP 1 is specified as being equal to 100% for the sake of convenience.

Sequence of Factor Xa (P00742 235-488 limits assumed): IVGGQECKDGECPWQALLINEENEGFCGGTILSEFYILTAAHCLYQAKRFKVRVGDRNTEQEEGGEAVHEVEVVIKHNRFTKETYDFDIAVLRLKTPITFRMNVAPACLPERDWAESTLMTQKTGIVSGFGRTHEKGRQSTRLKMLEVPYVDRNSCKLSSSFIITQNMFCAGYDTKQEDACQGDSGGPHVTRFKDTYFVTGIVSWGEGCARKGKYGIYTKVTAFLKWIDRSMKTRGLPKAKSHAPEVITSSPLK
Sequence of Factor Xa (P00742 41-179 partner limits assumed): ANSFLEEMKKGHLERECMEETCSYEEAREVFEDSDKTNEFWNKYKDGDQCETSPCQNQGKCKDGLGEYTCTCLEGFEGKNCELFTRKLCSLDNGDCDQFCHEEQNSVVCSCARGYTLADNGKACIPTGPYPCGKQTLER

SMILES | Activity (activity towards Factor Xa) [%]
COC(=O)CC(=O)N[C@H](CC(C)C)C(=O)NCC(=O)N[C@@H](CCCNC(=N)N)C(=O)Nc1ccc([N+](=O)[O-])cc1 [Ex. 1, MM-D-Leu-Gly-L-Arg-pNA.AcOH] | 115
CC[C@@H](C)[C@@H](NC(=O)CC(=O)OC)C(=O)N[C@@H](CCC(=O)OC)C(=O)NCC(=O)N[C@@H](CCCNC(=N)N)C(=O)Nc1ccc([N+](=O)[O-])cc1 [Ex. 33, MM-D-Ile-L-Glu(OMe)-Gly-L-Arg-pNA] (X1-[dI]E(OMe)GR-pNA) | 105
CC(C)C[C@@H](NS(C)(=O)=O)C(=O)NCC(=O)N[C@@H](CCCNC(=N)N)C(=O)Nc1ccc([N+](=O)[O-])cc1 [CP 1, reference compound] (Ms-[dL]-Gly-Arg-pNA) | 100
CCCC[C@@H](NC(=O)CC(=O)OC)C(=O)NCC(=O)N[C@@H](CCCNC(=N)N)C(=O)Nc1ccc([N+](=O)[O-])cc1 [Ex. 14, MM-D-Nle-Gly-L-Arg-pNA] | 140
CCOC(=O)CC(=O)N[C@H](CC(C)C)C(=O)NCC(=O)N[C@@H](CCCNC(=N)N)C(=O)Nc1ccc([N+](=O)[O-])cc1 [Ex. 2, EM-D-Leu-Gly-L-Arg-pNA] | 132
COCCOCCOCCOCCOCCOCCOCCOC(=O)N[C@H](CC(C)C)C(=O)NCC(=O)N[C@@H](CCCNC(=N)N)C(=O)Nc1ccc([N+](=O)[O-])cc1 [Ex. 64, Me-O(CH2 CH2 O)7 -CO-D-Leu-Gly-L-Arg-pNA.AcOH] | 103
CCCCOCCOCCOCCOCCOCCOCCOCCOC(=O)N[C@H](CCCC)C(=O)NCC(=O)N[C@@H](CCCNC(=N)N)C(=O)Nc1ccc([N+](=O)[O-])cc1 [Ex. 101] | 124

Next, values leading:

Activity (activity towards Factor Xa) [%] | SMILES
110 | COCCOCCOCCOC(=O)N[C@H](CC(C)C)C(=O)NCC(=O)N[C@@H](CCCNC(=N)N)C(=O)Nc1ccc([N+](=O)[O-])cc1 [Ex. 63, MeO(CH2 CH2 O)3 -CO-D-Leu-Gly-L-Arg-pNA]
121 | CCCC[C@@H](NC(=O)OCCOCCOCCOC)C(=O)NCC(=O)N[C@@H](CCCNC(=N)N)C(=O)Nc1ccc([N+](=O)[O-])cc1 [Ex. 73]
145 | COCCOC(=O)N[C@H](CC(C)C)C(=O)NCC(=O)N[C@@H](CCCNC(=N)N)C(=O)Nc1ccc([N+](=O)[O-])cc1 [Ex. 61, Me-OCH2 CH2 O-CO-D-Leu-Gly-L-Arg-pNA.AcOH]
105 | COCCOCCOC(=O)N[C@H](CC(C)C)C(=O)NCC(=O)N[C@@H](CCCNC(=N)N)C(=O)Nc1ccc([N+](=O)[O-])cc1 [Ex. 62, Me-O(CH2 CH2 O)2 -CO-D-Leu-Gly-L-Arg-pNA.AcOH]
